From BindingDB's records for doi:10.1124/jpet.104.066092 (Wyeth Research, 2004)

Target: Glutamate receptor ionotropic, NMDA 1 (Rattus norvegicus, UniProt P35439)

O=C(O)[C@@H]1C[C@H](CP(=O)(O)O)CCN1 [Selfotel]
Ki: > 10 µM
